Tests used:
[1] = test system: BHK21 cells; format: cell-based, hamster; conditions: BHK21 cells at 4 °C; 10 μM; confocal microscopy
[2] = test system: BHK21-tTA/anti-CHC cell line; format: cell-based, hamster; conditions: +tet control cells; peptides 10 μM, Tf 10 μg/ml; 37 °C; confocal microscopy
[3] = test system: BHK21-tTA/anti-CHC cell line; conditions: absence of tetracycline for 2 days; cited from earlier work

| Substance | intracellular fluorescently labeled vesicles, in words [1] | vesicular (endocytic) uptake, in words [2] | inhibition of transferrin internalization [3] [%] |
| --- | --- | --- | --- |
| YARAARQARA [PTD4, TAMRA-PTD4 (YARAARQARA)] | not observed | presence of PTD4-containing vesicles |  |
| transferrin: transferrin conjugated to Alexa Fluor 633, marker for clathrin-dependent endocytosis |  | internalized at high rates | 90 |
